From ChEMBL document CHEMBL4190398, “Detailed Exploration around 4-Aminoquinolines Chemical Space to Navigate the Lysine Methyltransferase G9a and DNA Methyltransferase Biological Spaces” (J Med Chem, 2018)

Columns and labels:
THLE-2 = assay: Cytotoxicity against human THLE2 cells assessed as reduction in cell viability after 72 hrs by MTS assay; assay type: cell-based; conditions: thle-2, 72 h
[1] = Metabolic stability in mouse liver microsomes assessed as parent compound remaining at 1 uM preincubated for 10 mins followed by NADP addition measured after 20 mins by LC-MS/MS analysis; assay type: ADME, microsome; conditions: read-out: Stability
[2] = Metabolic stability in human liver microsomes assessed as parent compound remaining at 1 uM preincubated for 10 mins followed by NADP addition measured after 20 mins by LC-MS/MS analysis; assay type: ADME, microsome; conditions: read-out: Stability

Structure (SMILES): CCc1ccc(-c2cc(NC3CCN(C)CC3)c3cc(OC)c(OCCCN4CCCC4)cc3n2)o1
- LC50 (THLE-2): 2320 nM

Structure (SMILES): COc1cc2c(NC3CCN(C)CC3)cc(-c3ccc(C)o3)nc2cc1OCCCN1CCCC1
- LC50 (THLE-2): 1780 nM

Structure (SMILES): COc1cc2c(NC3CCN(C)CC3)cc(-c3ccc(C)o3)nc2cc1OCC1CCN(C)CC1
- LC50 (THLE-2): 1030 nM

Structure (SMILES): COc1cc2c(NCC3CCN(C(C)C)CC3)cc(-c3ccc(C)o3)nc2cc1OCCCN1CCCC1
- LC50 (THLE-2): 777 nM

Structure (SMILES): CCc1ccc(-c2cc(NC3CCC34CCN(C)CC4)c3cc(OC)c(OCCCN4CCCC4)cc3n2)o1 (stereo not drawn)
- LC50 (THLE-2): 517 nM

Structure (SMILES): COc1cc2c(NC3CC4(CCN(C(C)C)CC4)C3)cc(-c3ccc(C)o3)nc2cc1OCCCN1CCCC1
- LC50 (THLE-2): 841 nM

Structure (SMILES): CCc1ccc(-c2cc(NC3CCN(C)CC3)c3cc(OC)c(OCCCN4CCC5(CC5)C4)cc3n2)o1
- LC50 (THLE-2): 2040 nM

Structure (SMILES): COc1cc2c(NC3CC4CCC(C3)N4C)cc(-c3ccc(C)o3)nc2cc1OCCCN1CCCC1 (stereo not drawn)
- LC50 (THLE-2): 4150 nM
- remaining at 20 min, 1 µM [1]: 43.9%
- remaining at 20 min, 1 µM [2]: 60.3%

Structure (SMILES): COc1cc2c(NC3CC4(CCN(C)CC4)C3)cc(-c3ccc(C)o3)nc2cc1OCCCN1CCCC1
- LC50 (THLE-2): 992 nM
- remaining at 20 min, 1 µM [1]: 40.6%
- remaining at 20 min, 1 µM [2]: 68.6%

Structure (SMILES): COc1cc2c(NC3C4CCC3CN(C)C4)cc(-c3ccc(C)o3)nc2cc1OCCCN1CCCC1 (stereo not drawn)
- LC50 (THLE-2): 527 nM

Structure (SMILES): CCc1ccc(-c2cc(NC3CCN(C)CC3)c3cc(OC)c(OCCCN(C)C)cc3n2)o1
- LC50 (THLE-2): 3520 nM

Structure (SMILES): COc1cc2c(NCC3CCN(C)CC3)cc(-c3ccc(C)o3)nc2cc1OCCCN1CCCC1
- LC50 (THLE-2): 1300 nM

Structure (SMILES): COc1cc2c(NC3CCN(C)CC3)cc(-c3ccc(C)o3)nc2cc1OCC1CCNCC1
- LC50 (THLE-2): 24800 nM

Structure (SMILES): COc1cc2c(NC3CCC34CCN(C)CC4)cc(-c3ccc(C)o3)nc2cc1OCCCN1CCCC1 (stereo not drawn)
- LC50 (THLE-2): 731 nM
- remaining at 20 min, 1 µM [1]: 53.3%
- remaining at 20 min, 1 µM [2]: 80.4%

Structure (SMILES): CCc1ccc(-c2cc(NC3CCN(C)CC3)c3cc(OC)c(OCCCN4CCCCC4)cc3n2)o1
- LC50 (THLE-2): 1380 nM

Structure (SMILES): CCc1ccc(-c2cc(NCC3C4CCC3CN(C)C4)c3cc(OC)c(OCCCN4CCCC4)cc3n2)o1 (stereo not drawn)
- LC50 (THLE-2): < 164 nM

Structure (SMILES): COc1cc2c(NC3CCC34CCN(C)C4)cc(-c3ccc(C)o3)nc2cc1OCCCN1CCCC1 (stereo not drawn)
- LC50 (THLE-2): 1980 nM

Structure (SMILES): CCc1ccc(-c2cc(NCC3CCN(C)CC3)c3cc(OC)c(OCCCN4CCCC4)cc3n2)o1
- LC50 (THLE-2): 954 nM
- remaining at 20 min, 1 µM [1]: 59.1%
- remaining at 20 min, 1 µM [2]: 69%

Structure (SMILES): COc1cc2c(NC3CC4(CCN(C)CC4)C3)cc(-c3ccc(C)o3)nc2cc1OCC1CCN(C)CC1
- LC50 (THLE-2): 2530 nM

Structure (SMILES): COc1cc2c(NC3CCN(C)CC3)cc(-c3ccc(C)o3)nc2cc1OC1CC2(C1)CN(C)C2
- LC50 (THLE-2): 698 nM
- remaining at 20 min, 1 µM [1]: 43.3%
- remaining at 20 min, 1 µM [2]: 49.8%

Structure (SMILES): Cc1ccc(-c2cc(NC3CCN(C)CC3)c3cc(Cl)c(OCCCN4CCCC4)cc3n2)o1
- LC50 (THLE-2): 2310 nM
- remaining at 20 min, 1 µM [1]: 81.7%
- remaining at 20 min, 1 µM [2]: 81.7%

Structure (SMILES): COc1cc2c(NC3CC4(CCN(C)C4)C3)cc(-c3ccc(C)o3)nc2cc1OCCCN1CCCC1 (stereo not drawn)
- LC50 (THLE-2): 8380 nM

Structure (SMILES): COc1cc2c(NC3CC4(CCN(C(C)C)CC4)C3)cc(-c3ccc(C)o3)nc2cc1OC1CC2(C1)CN(C)C2 (stereo not drawn)
- LC50 (THLE-2): 4650 nM

Structure (SMILES): COc1cc2c(NC3CCN(C)C(=O)C3)cc(-c3ccc(C)o3)nc2cc1OCCCN1CCCC1 (stereo not drawn)
- LC50 (THLE-2): 7950 nM
- remaining at 20 min, 1 µM [1]: 71.9%
- remaining at 20 min, 1 µM [2]: 82.7%
